Tests used:
Format in all cases: in vivo, albino rats
[1] = test system: ethanol induced gastric ulcers; experiment: Ethanol induced ulcers; details: rats, ethanol challenge; for Acidity Total mEg / Gastric content / pH: 4 hours after pylorus ligation
Protocol: Stress induced gastric ulceration The commercially available drug ranitidine (sigma), Omeprazole (sigma) and sucralfate (Merck) were used as reference standard in experimental models. The Tween-80 (SD fine chemicals) was used as vehicle for the administration of the drug, which is used as control. The animals were divided into 22 groups of 6 animals each. Animals were deprived of food for 48 hours but had free access to water. Group 1 received the vehicle Tween 80 (1%, 1 ml) which served as the control. Group 2 received ranitidine at a dose of 50-mg/kg-body weight, which served as standard for comparison. Group 3 to received Omeprazole at a dose of 30-mg/kg body weight, which served as standard for comparison. Group 4 received sucralfate at a dose of 400-mg/kg body weight, which served as standard for comparison. Group 5 to 22 received at a dose of 25 mg/kg body weight. Lesions were induced 1 hour after ethanol challenge animals. The stomach was ligated at the pylorus under ether anesthesia. 4 hours after pylorus ligation, the animals were sacrificed and the contents drained and centrifuges at 5000 rpm for 10 minutes. Aliquots of supernatant were used for determination of total acid by titrating with 0.01N NaOH using topfers reagent and phenolphthalein indicators. […] The animals were divided into 9 groups of 6 animals each. Animals were deprived of food for 48 hours but had free access to water. Group 1 received the vehicle Tween 80 (1%, 1 ml) which served as the control. Group 2 received ranitidine at a dose of 50-mg/kg-body weight, which served as standard for comparison. Group 3 to received Omeprazole at a dose of 30-mg/kg body weight, which served as standard for comparison. Group 4 received sucralfate at a dose of 400-mg/kg body weight, which served as standard for comparison. […] Lesions were induced 1 hour after ethanol challenge animals. The stomach was ligated at the pylorus under ether anesthesia. 4 hours after pylorus ligation, the animals were sacrificed and the contents drained and centrifuges at 5000 rpm for 10 minutes. Aliquots of supernatant were used for determination of total acid by titrating with 0.01N NaOH using topfers reagent and phenolphthalein indicators.

Pylorus ligated rats = experiment: Pylorus ligated ulcers; details: 4 hours after pylorus ligation
Excerpt: (§1) The compounds taken under study for antigastric ulcer screening by four different models were selected using experimental albino rats: • 1. Aspirin induced gastric ulceration • 2. Pylorus ligated gastric ulceration • 3. Ethanol induced gastric ulceration • 4. Stress induced gastric ulceration
(§2) The commercially available drug ranitidine (sigma), Omeprazole (sigma) and sucralfate (Merck) were used as reference standard in experimental models. The Tween-80 (SD fine chemicals) was used as vehicle for the administration of the drug, which is used as control.
The animals were divided into 19 groups of 6 animals each. Animals were deprived of food for 48 hours but had free access to water. Group 1 received the vehicle Tween 80 (1%, 1 ml) which served as the control. Group 2 received ranitidine at a dose of 50-mg/kg-body weight, which served as standard for comparison. […] After one hour of administration of drug the stomach was ligated at the pylorus under ether anesthesia. 4 hours after pylorus ligation, the animals were sacrificed and the contents drained and centrifuges at 5000 rpm for 10 minutes. Aliquots of supernatant were used for determination of total acid by titrating with 0.01N NaOH using topfers reagent and phenolphthalein indicators. 4.
The animals were divided into 7 groups of 6 animals each. Animals were deprived of food for 48 hours but had free access to water. Group 1 received the vehicle Tween 80 (1%, 1 ml) which served as the control. Group 2 received ranitidine at a dose of 50-mg/kg-body weight, which served as standard for comparison. Group 3 to 7 received at a dose of 50, 25, 15, 10 and 5 mg/kg body weight respectively. After one hour of administration of drug the stomach was ligated at the pylorus under ether anesthesia. 4 hours after pylorus ligation, the animals were sacrificed and the contents drained and centrifuges at 5000 rpm for 10 minutes. Aliquots of supernatant were used for determination of total acid by titrating with 0.01N NaOH using topfers reagent and phenolphthalein indicators.

[2] = test system: gastric ulcers induced by aspirin, ethanol, stress and pylorus ligation; experiment: Antigastric ulcer screening by four different models (statements in words); details: summary statement
Excerpt: as §1, §2

[3] = test system: gastric ulceration in cold restraint rats; experiment: Cold restraint (stress) induced ulcers; parameters: Ulcer index Mean(SE): scale not given here; details: rats, 4° C. for 2 hours
Excerpt: as §1, §2
(§3) The antiulcer activity of the compounds was studied. The animals were divided into 21 groups of 7 animals each. Group 1 received the vehicle Tween 80 (1%, 1 ml) which served as the control. Group 2 received ranitidine at a dose of 50-mg/kg body weight, which served as standard for comparison. Group 3 to 21 at a dose of 25 mg/kg body weight. Animals were deprived of food 48 hours before the experiment. The water was allowed for free access. Rats were administered per orally with compounds and the drug ranitidine. The water was removed 1 hour before restraint and exposed to a temperature of 4° C. for 2 hours. Two hours after stress, the animals were sacrificed. The stressed animals were opened along the greater curvature and the severity of gastric ulcer was assessed in terms of mean ulcer index. 2.
as §3, with “8” for “21”, “6” for “7”, “50, 25, 15, 10 and 5” for “25”, “weight respectively.” for “weight.”, “index.” for “index. 2.”

[4] = test system: acetyl salicylic acid induced gastric lesions; experiment: Acetyl salicylic acid (aspirin) induced gastric ulcer; parameters: Ulcer index Mean(SE): scale not given here; details: rats, aspirin 200 mg/kg
Protocol: Stress induced gastric ulceration The commercially available drug ranitidine (sigma), Omeprazole (sigma) and sucralfate (Merck) were used as reference standard in experimental models. The Tween-80 (SD fine chemicals) was used as vehicle for the administration of the drug, which is used as control. Antiulcer activity of the compounds under taken was studied. The animals were divided into 20 groups of 6 animals each. Group 1 received the vehicle Tween 80 (1%, 1 ml) which served as the control. Group 2 received ranitidine at a dose of 50-mg/kg body weight, which served as standard for comparison. Group 3 to 20 at a dose of 25 mg/kg body weight. Rats were administered per orally with a daily dose of the compounds and the drug ranitidine for a period of five days and then fasted for 24 hours. The […] acetyl salicylic acid (aspirin) at a dose of 200 mg/kg body weight was administered as a suspension in tween-80 (1%), 30 min after the drug administration each day. All drugs were administered orally on the 6th day after the last administration of the drugs and the ulcer inducing agent aspirin, the rats were killed by cervical dislocation and their stomach were opened along the greater curvature and washed with luke warm saline and examined under a dissecting microscope. The ulcer index was calculated for each stomach. […] The antiulcer activity of the compounds was studied. The animals were divided into 19 groups of 6 animals each. Group 1 received the vehicle Tween 80 (1%, 1 ml) which served as the control. Group 2 received ranitidine at a dose of 50-mg/kg-body weight, which served as standard for comparison. […] Rats were administered per orally with a daily dose of the compounds and the drug ranitidine to respective groups for a period of five days and then fasted for 24 hours. The […] acetyl salicylic acid (aspirin) at a dose of 200 mg/kg body weight was administered as a suspension in tween-80 (1%), 30 min after the drug administration each day. All drugs were administered orally on ht […] day after the last administration of the drugs and the ulcer inducing agent aspirin, the rats were killed by cervical dislocation and their stomach were opened along the greater curvature and washed with luke warm saline and examined under a dissecting microscope.

[5] = 25 mg/kg per orally daily for five days
[6] = Rattus norvegicus, po, 25 mg/kg per orally
[7] = Rattus norvegicus, po, 120 h, 25 mg/kg per orally daily for five days

Row | Structure (SMILES) | Inhibition % ([1]; 25 mg/kg) [%] | Ulcer index Mean(SE) ([1]; 25 mg/kg) | Acidity Total mEg ([1]; 25 mg/kg) | Gastric content ([1]; 25 mg/kg) | pH ([1]; 25 mg/kg) | Acidity Total mEg (Pylorus ligated rats; 25 mg/kg) | Gastric content (Pylorus ligated rats; 25 mg/kg) | Inhibition % (Pylorus ligated rats; 25 mg/kg) [%] | Ulcer index Mean(SE) (Pylorus ligated rats; 25 mg/kg) | pH (Pylorus ligated rats; 25 mg/kg) | Inhibition % ([3]; 25 mg/kg per orally) [%] | Ulcer index Mean(SE) ([3]; 25 mg/kg per orally) | Inhibition % [4, 5] [%] | Ulcer index Mean(SE) [4, 5] | inhibition at 25 mg/kg ([1]; Rattus norvegicus, 25 mg/kg) [%] | inhibition at 25 mg/kg [3, 6] [%] | inhibition at 25 mg/kg [4, 7] [%] | other results
1 | COC(=O)C1OC(Oc2ccc3c(=O)cc(-c4ccccc4)oc3c2)C(O)C(O)C1O (centres unmarked) [CGL, 3,4,5-trihydroxy-6-(4-oxo-2-phenyl-4-H-chromen-7-yoloxy) tetrahydro-pyran-2-carboxylicacid methyl ester] | 62.50 | 25.00 (±2.88) | 39.00 (±1.52) mEg | 4.60 (±0.20) | 3.91 (±0.21) | 40.00 (±1.15) m Eg | 4.83 (±0.44) | 60.17 | 19.96 (±6.66) | 3.08 (±0.22) | 50.22 | 20.00 | 70.46 | 13.33 |  |  |  | antiulcer activity (in words) [2]: very good activity
2 | COc1c(OC2OC(CO)C(O)C(O)C2O)cc2oc(-c3ccccc3)cc(=O)c2c1O (centres unmarked) [OA-G, 5-Hydroxy-6-methoxy-2-phenyl-7-(3,4,5-trihydroxy-6-hydroxyrnethyl-tetrahydro-pyran-2-yloxy)-chromen-4-one] | 20.00 | 53.33 (±6.66) | 36.66 (±0.88) mEg | 4.33 (±0.11) | 4.31 (±0.11) | 41.66 (±1.66) m Eg |  | 30.16 | 35.00 (±2.88) | 3.20 (±0.15) | 19.52 | 32.33 | 32.05 | 30.66 |  |  |  | 
3 | CCCCCCCCCCCCCCCCC(=O)Oc1cc2oc(-c3ccccc3)cc(=O)c2c(O)c1OC [ORC-16, Heptadecanoic acid 5-hydroxy-6-methoxy-4-oxo-2-phenyl-4H-chromen-7-yl ester] |  | 51.50 (±1.05) | 43.20 (±3.86) mEg | 3.7 (±0.10) | 3.58 (±0.23) | 42.20 (±2.20) m Eg | 1.92 (±0.20) |  | 43.33 (±2.10) | 3.66 (±0.20) |  | 35.00 |  | 39.13 | 22.8 | 14 | 13.3 | 
4 | COc1c(OC(=O)c2ccc(C)cc2)cc2oc(-c3ccccc3)cc(=O)c2c1O [ORPM-1, 4-methyl-benzoic acid 5-hydroxy-6-methoxy-4-oxo-2-phenyl-4-H-chromen-7-yl ester] | 28.75 | 47.50 (±1.11) | 44.24 (±0.62) mEg | 3.0 (±1.50) | 3.50 (±0.18) | 45.24 (±0.30) m Eg | 2.20 (±0.22) | 16.87 | 41.66 (±2.78) | 3.20 (±0.25) | 24.23 | 22.85 | 16.91 | 37.49 |  |  |  | 
5 | COc1c(O)cc2oc(-c3ccccc3)cc(=O)c2c1O [Oroxylin A, 5,7-Dihydroxy-6-methoxy-2-phenylchromen-4-one] |  | 48.33 (±3.33) | 48.24 (±2.84) mEg | 4.0 (±0.45) | 3.19 (±0.73) | 55.24 (±2.40) m Eg | 2.30 (±0.42) |  | 50.80 (±2.00) | 2.74 (±0.24) |  | 38.57 |  | 42.50 | 27.5 | 5.26 | 5.81 | inhibition at 25 mg/kg (Pylorus ligated rats; Rattus norvegicus, 25 mg/kg): 0%
6 | CNC(=C[N+](=O)[O-])NCCSCc1ccc(CN(C)C)o1 [Ranitidine, ranitidine, reference compound] |  |  |  |  |  |  |  |  |  |  |  |  |  |  |  |  |  | inhibition at 50 mg/kg ([1]; Rattus norvegicus, 50 mg/kg): 61.3%; Ulcer index Mean(SE) ([1]; 50 mg/kg): 25.83 (±2.22); Acidity Total mEg ([1]; 50 mg/kg): 26.74 (±1.54) mEg; Gastric content ([1]; 50 mg/kg): 5.0 (±0.48); pH ([1]; 50 mg/kg): 4.96 (±0.13); Acidity Total mEg (Pylorus ligated rats; 50 mg/kg): 31.8 (±1.91) m Eg; Gastric content (Pylorus ligated rats; 50 mg/kg): 1.82 (±0.44); Ulcer index Mean(SE) (Pylorus ligated rats; 50 mg/kg): 10.83 (±3.21); pH (Pylorus ligated rats; 50 mg/kg): 4.75 (±0.22); inhibition at 50 mg/kg (Pylorus ligated rats; Rattus norvegicus, 50 mg/kg): 78.4%; inhibition at 50 mg/kg ([3]; Rattus norvegicus, po, 50 mg/kg per orally): 78.8%; Ulcer index Mean(SE) ([3]; 50 mg/kg per orally): 08.62; inhibition at 50 mg/kg ([4]; Rattus norvegicus, po, 120 h, 50 mg/kg per orally daily for five days): 74.2%; Ulcer index Mean(SE) ([4]; 50 mg/kg per orally daily for five days): 11.66

— patent US7855200B2, “Method for treatment of gastric ulcers and ulcers induced by aspirin” (Council of Scientific and Industrial Research, priority 2006, dated 2010)
